Measurements published in patent US20230024521A1, “JAK INHIBITORS” (Vimalan Biosciences, Inc., priority 2019, published 2023).

Legend:
[1] = biological target: T1, JAK3 (Homo sapiens, UniProt P52333); test: JAK/TYK2 assay (Kinase Glo luminescence): Jak3 kinase assay; format: biochemical; conditions: 1.5 nM enzyme, 2 uM ATP, 4 uM pEY, 1 hr; read-out: Jak3 kinase assay: IC50 Geomean
T1 sequence (P52333 1-1124): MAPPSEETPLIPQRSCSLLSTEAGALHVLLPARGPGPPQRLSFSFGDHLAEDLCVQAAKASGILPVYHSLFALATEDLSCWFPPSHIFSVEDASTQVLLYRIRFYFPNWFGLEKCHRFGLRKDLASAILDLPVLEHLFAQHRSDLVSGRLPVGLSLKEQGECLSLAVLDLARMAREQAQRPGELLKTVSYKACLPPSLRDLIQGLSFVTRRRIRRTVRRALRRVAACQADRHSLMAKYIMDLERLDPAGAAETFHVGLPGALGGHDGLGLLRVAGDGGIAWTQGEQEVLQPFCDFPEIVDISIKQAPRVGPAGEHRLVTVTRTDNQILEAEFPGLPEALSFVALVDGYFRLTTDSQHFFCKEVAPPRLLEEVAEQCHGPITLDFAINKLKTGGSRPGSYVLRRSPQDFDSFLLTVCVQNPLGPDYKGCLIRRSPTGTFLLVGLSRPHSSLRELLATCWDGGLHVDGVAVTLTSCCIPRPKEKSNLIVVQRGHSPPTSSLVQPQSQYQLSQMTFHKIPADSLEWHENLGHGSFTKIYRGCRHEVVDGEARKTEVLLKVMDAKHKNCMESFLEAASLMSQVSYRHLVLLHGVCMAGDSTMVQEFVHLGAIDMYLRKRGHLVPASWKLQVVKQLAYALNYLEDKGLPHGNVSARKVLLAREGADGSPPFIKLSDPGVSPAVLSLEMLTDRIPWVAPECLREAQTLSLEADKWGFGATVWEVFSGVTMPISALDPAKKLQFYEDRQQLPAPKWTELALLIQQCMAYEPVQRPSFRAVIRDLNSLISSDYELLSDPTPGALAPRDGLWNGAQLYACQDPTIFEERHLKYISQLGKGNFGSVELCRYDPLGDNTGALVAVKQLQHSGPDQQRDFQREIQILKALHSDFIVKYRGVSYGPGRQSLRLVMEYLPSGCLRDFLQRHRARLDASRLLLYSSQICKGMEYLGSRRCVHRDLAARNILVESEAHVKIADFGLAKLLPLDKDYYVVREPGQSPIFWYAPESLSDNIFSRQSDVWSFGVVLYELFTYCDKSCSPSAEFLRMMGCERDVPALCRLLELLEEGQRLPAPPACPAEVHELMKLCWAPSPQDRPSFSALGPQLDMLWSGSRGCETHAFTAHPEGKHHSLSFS
Description: (§1) Example A: JAK/TYK2 Assay 10 mM test compound stock or 1 mM control compound stock (tofocitinib, ruxolitinib or staurosporine) in DMSO was diluted to 0.4 mM in DMSO. A 3-fold series dilution was then performed in DMSO to generate 10 different compound concentrations. The assay was carried out in 384-well white plate. 0.5 μL of 40× compound DMSO solution at different concentrations was mixed with 10 uL 2× enzyme prepared in reaction buffer (20 mM HEPES, 10 mM MgCl2, 0.01% Tween, 1 mM DTT, pH 7.5). 10 uL 2× substrate mixture prepared in reaction buffer was then added to start the reaction. A short spin was done to settle down all solutions to the bottom of the plate. Final concentrations of test compound in the reaction mixture were 10000, 3333, 1111, 370, 123, 41.2, 13.7, 4.57, 1.52 and 0.51 nM, Concentrations of control compound were ten times less. Enzymatic reaction was conducted at 25° C. for 1-2 hours. 10 uL of Kinase Glo Reagents was added to stop the reaction and generate the luminescent signal which was measured using Envision. Luminescence signal was inversely related to kinase activity. […] The mixture without any compound was the positive control. [table]

[2] = system: JAK2: GM-CSF stimulated STAT5 phosphorylation; test: Co-stimulation assay in lysed whole blood; JAK2: GM-CSF stimulated STAT5 phosphorylation; format: cell-based, human; conditions: Homo sapiens, read-out: GMCSF/J2/pS5: GeoMean (nM)
Description: Example C: Co-Stimulation Assay in Lysed Whole Blood; JAK2: GM-CSF Stimulated STAT5 Phosphorylation and JAK1/TYK2 Stimulated STAT1 Phosphorylation Assay
Human Blood Lysis using abcam's RBC lysis buffer
Dilute RBC lysis buffer to 1× in distilled water. Add 2 mL blood to 38 mL of 1×RBC-lysis buffer. Incubate for 15 mins at RT, in dark. Spin at 300 g, 5 mins, to collect the pellet. Re-lyse if necessary. Re-suspend pellet in 5 mL of cRPMI.
Aliquot 80 μL of lysed human blood in to wells of 96 deep-well plate. Add 10 μl of (10× conc.) of different concentrations of compounds to all wells except controls (unstained and unstimulated) and mix it with the help of 100 uL multichannel Add 10 uL of RPMI media in controls. For dilution of compounds and dilution range please refer Appendix. Incubate on water bath or CO2 incubator for 1 hour at 37° C. Add 10 μl of (10× conc.) of cytokine mix (GM-CSF and IFNa) (final conc. 10 ng/mL of GM-CSF and 100 ng/mL of IFNa) to each well except unstimulated and unstained controls and incubate further for 20 minutes on water bath at 37° C.
Add 900 μL of prewarmed 1× Fix/Lyse solution (Appendix) and mix it properly using 1000 μl multichannel, incubate further on water bath at 37° C. for 10 minutes (which includes time of addition). Centrifuge at 800×g for 5 minutes at 40° C.; remove 900 uL of supernatant and add 900 μL of 1×PBS. Centrifuge at 800×g for 5 minutes at 40° C., remove 900 μL of supernatant. Wash one more time with 900 μL of PBS (optional) and resuspend pellets in 100 uL of PBS.
Disrupt the pellet by gentle tapping and resuspend in 1000 μL of BD Phosflow Perm Buffer III and incubate plate on ice for 30 minutes. Centrifuge plate at 800×g for 5 minutes at 40° C. Wash two more times with 1000 μL of BD Pharmingen Stain Buffer.
Disrupt the pellet by gentle tapping. Resuspend pellets in 100 uL of Stain Buffer and add 5 μL of pSTAT5_AF488 Ab and 5 uL of pSTAT1_PE in all wells except unstained control and mix properly using 200 μl multichannel, incubate overnight at […]. Add 900 μL of wash buffer and centrifuge at 1800 rpm for 3 minutes at […]. Wash one more time with 1000 μL of BD Pharmingen Stain Buffer. Finally resuspend the pellet in 300 uL of BD Pharmingen Stain Buffer. Transfer the cells to 96-well v-bottom plate and acquire the cells in Beckman Coulter CytExpert. Acquiring cells in Flow Cytometer: Keep the threshold value to 250 and cell concentration should not exceed 100-500 cells/4. Acquire at least 5,000-10,000 cells.
RPMI 1640 Complete Medium: RPMI 1640 media+10% FBS.
Cytokine dilution: 1) GM-CSF Stock at 100 ug/mL. Prepare an intermediate dilution of 1 ug/mL by adding 2 uL of stock into 198 uL of cRPMI. Further dilute to 100 ng/mL by adding 100 uL of the intermediate stock to 900 uL of cRPMI. 2) IFNa Stock at 200 ug/mL. Dilute IFNa stock 1:200 by adding 5 uL of stock into the 1000 uL of 100 ng/mL GM-CSF working stock as above to give a combined working stock of 1000 ng/mL of IFNa and 100 ng/mL GM-CSF (10×). Keep it on ice until used.
Lyse/Fix buffer preparation: Dilute 5× Lyse/Fix buffer to 1× using MQ water and keep at 37° C. until used.
BD Phosflow perm buffer III: Keep on ice/fridge

[3] = biological target: JAK2 (Homo sapiens, UniProt O60674); test: JAK/TYK2 assay (Kinase Glo luminescence): Jak2 kinase assay; format: biochemical; conditions: 0.8 nM enzyme, 2 uM ATP, 4 uM pEY, 1 hr; read-out: Jak2 kinase assay: IC50 Geomean
Description: as §1

[4] = biological target: JAK1 (Homo sapiens, UniProt P23458); test: JAK/TYK2 assay (Kinase Glo luminescence): Jak1 kinase assay; format: biochemical; conditions: 7.5 nM enzyme, 2 uM ATP, 30 uM IRS-1, 1 hr
Description: as §1

[5] = biological target: TYK2 (Homo sapiens, UniProt P29597); test: JAK/TYK2 assay (Kinase Glo luminescence): Tyk2 kinase assay; format: biochemical; conditions: 9 nM enzyme, 2 uM ATP, 30 uM IRS-1, 1 hr; read-out: Tyk2 kinase assay: IC50 Geomean
Description: as §1

Sequence of TYK2 (P29597 whole entry, species assumed): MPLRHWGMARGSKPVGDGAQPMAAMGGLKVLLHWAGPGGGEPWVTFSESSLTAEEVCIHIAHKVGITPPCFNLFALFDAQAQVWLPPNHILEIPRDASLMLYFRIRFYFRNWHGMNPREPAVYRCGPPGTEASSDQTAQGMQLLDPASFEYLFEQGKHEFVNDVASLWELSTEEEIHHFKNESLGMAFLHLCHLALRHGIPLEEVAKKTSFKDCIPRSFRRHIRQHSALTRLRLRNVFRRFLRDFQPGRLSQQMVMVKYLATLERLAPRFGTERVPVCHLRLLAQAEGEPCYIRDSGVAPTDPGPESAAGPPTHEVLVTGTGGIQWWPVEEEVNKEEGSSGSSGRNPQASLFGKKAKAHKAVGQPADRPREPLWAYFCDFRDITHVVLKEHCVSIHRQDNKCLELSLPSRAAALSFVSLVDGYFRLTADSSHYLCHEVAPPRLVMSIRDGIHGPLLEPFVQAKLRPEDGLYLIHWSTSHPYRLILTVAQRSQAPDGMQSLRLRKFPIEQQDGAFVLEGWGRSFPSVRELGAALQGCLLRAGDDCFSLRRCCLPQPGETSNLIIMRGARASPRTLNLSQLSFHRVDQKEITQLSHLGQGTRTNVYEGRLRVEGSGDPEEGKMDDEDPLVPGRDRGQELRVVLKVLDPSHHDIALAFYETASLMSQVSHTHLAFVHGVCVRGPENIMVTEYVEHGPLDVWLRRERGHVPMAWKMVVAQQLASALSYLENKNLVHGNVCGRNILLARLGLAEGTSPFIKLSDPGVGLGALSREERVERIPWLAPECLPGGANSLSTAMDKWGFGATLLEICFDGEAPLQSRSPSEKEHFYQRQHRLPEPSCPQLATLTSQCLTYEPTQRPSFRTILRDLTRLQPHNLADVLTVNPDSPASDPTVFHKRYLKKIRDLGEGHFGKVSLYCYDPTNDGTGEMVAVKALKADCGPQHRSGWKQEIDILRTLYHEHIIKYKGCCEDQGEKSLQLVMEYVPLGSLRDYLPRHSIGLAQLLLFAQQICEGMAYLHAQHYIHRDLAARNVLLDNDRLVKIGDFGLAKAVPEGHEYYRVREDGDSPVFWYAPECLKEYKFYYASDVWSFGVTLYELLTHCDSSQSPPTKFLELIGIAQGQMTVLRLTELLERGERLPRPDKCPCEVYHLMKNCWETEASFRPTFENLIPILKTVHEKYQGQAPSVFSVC
Sequence of JAK1 (P23458 whole entry, species assumed): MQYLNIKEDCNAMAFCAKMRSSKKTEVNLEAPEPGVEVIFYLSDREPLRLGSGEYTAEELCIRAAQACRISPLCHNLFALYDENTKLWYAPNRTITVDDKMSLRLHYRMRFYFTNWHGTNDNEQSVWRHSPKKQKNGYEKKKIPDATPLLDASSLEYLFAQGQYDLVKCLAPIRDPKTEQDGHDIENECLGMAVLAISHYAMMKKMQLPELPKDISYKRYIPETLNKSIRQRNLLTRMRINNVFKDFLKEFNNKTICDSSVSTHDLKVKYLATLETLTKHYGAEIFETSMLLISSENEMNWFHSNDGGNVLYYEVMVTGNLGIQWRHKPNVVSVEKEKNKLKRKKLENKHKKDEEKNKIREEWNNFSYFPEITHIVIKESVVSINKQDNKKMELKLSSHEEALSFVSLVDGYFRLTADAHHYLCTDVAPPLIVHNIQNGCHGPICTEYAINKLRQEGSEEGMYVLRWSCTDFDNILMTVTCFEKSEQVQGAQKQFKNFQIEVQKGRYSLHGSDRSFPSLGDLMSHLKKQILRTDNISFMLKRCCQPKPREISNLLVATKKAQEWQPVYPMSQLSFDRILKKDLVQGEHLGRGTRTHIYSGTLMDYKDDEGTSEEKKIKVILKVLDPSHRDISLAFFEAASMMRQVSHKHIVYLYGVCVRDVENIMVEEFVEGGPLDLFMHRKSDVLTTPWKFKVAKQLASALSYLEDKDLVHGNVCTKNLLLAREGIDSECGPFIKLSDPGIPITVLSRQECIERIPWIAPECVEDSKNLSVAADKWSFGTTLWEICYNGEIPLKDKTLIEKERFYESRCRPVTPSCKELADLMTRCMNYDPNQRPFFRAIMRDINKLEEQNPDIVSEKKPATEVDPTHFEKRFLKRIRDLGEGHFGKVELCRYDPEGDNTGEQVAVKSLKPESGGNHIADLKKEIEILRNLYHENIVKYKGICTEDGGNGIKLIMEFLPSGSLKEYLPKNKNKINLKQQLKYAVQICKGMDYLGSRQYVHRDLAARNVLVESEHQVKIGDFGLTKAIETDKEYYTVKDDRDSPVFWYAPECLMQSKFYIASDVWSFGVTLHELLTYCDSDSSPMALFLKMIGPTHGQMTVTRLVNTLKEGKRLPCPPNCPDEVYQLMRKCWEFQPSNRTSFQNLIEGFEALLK
Sequence of JAK2 (O60674 whole entry, species assumed): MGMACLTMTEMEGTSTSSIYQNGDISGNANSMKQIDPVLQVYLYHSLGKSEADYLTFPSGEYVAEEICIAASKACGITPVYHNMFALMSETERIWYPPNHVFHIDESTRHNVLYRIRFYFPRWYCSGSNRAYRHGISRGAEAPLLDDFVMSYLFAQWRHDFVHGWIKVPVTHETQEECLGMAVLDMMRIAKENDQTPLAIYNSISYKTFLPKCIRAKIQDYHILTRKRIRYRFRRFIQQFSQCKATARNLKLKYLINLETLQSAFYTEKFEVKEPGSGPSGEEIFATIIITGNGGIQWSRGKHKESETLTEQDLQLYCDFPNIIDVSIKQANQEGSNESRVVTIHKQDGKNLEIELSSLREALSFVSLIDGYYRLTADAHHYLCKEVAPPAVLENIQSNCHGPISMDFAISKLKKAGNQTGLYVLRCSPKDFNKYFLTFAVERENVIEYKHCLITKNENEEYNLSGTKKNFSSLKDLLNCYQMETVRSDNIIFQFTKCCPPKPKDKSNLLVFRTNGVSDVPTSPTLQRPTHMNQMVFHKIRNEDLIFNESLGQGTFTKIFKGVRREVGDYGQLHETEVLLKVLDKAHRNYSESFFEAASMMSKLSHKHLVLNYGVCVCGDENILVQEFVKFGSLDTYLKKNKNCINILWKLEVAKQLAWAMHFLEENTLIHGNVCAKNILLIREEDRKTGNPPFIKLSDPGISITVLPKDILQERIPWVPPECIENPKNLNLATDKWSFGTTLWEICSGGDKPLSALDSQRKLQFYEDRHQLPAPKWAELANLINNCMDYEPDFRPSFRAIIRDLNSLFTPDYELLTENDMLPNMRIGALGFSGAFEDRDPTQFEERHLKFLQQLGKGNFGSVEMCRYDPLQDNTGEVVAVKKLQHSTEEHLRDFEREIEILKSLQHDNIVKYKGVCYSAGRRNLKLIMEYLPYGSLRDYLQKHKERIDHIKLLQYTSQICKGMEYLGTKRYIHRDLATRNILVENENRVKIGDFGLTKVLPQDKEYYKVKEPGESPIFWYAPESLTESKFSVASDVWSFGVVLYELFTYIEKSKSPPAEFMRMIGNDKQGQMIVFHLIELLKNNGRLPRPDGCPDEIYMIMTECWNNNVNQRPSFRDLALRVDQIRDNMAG

CC[C@H](Cn1ccc2cnc(Nc3cnn(CC(=O)Nc4ccncc4)c3)nc21)C(C)C [Example 2, (5)-2-(4-((7-(2-ethyl-3-methylbutyl)-7H-pyrrolo[2,3-d]pyrimidin-2-yl)amino)-1H-pyrazol-1-yl)-N-(pyridin-4-yl) acetamide]
IC50 [1]: < 100 nM | IC50 [2]: 1000 to 10000 nM | IC50 [3]: < 100 nM | IC50 [4]: < 100 nM | IC50 [5]: < 100 nM

CC[C@H](Cn1ccc2cnc(Nc3cnn(CC(=O)N(C)S(C)(=O)=O)c3)nc21)C(C)C [Example 4, (5)-2-(4-((7-(2-ethyl-3-methylbutyl)-7H-pyrrolo[2,3-d]pyrimidin-2-yl)amino)-1H-pyrazol-1-yl)-N-methyl-N-(methylsulfonyl) acetamide]
IC50 [1]: < 100 nM | IC50 [2]: 100 to 1000 nM | IC50 [3]: < 100 nM | IC50 [4]: < 100 nM | IC50 [5]: < 100 nM

CCC(CC)Cn1ccc2cnc(Nc3cnn(CC(=O)N(C)C)c3)nc21 [Example 5, 2-(4-((7-(2-ethylbutyl)-7H-pyrrolo[2,3-d]pyrimidin-2-yl)amino)-1H-pyrazol-1-yl)-N, N-dimethylacetamide]
IC50 [1]: < 100 nM | IC50 [2]: 1000 to 10000 nM | IC50 [3]: < 100 nM | IC50 [4]: < 100 nM | IC50 [5]: < 100 nM

CCC(CC)Cn1ccc2cnc(Nc3cnn(CC(=O)NC)c3)nc21 [Example 6, 2-(4-((7-(2-ethylbutyl)-7H-pyrrolo[2,3-d]pyrimidin-2-yl)amino)-1H-pyrazol-1-yl)-N-methylacetamide]
IC50 [1]: < 100 nM | IC50 [2]: 100 to 1000 nM | IC50 [3]: < 100 nM | IC50 [4]: < 100 nM | IC50 [5]: < 100 nM
